The nature of data set [1]: palatability / growth performance test in post-weaning piglets. The class given is in vivo. Details: concentration or dose not given beside the values. The following applies: butyrate source in standard feed (STD); for BWG (body weight gain), effect compared to a standard control: 36-49 days old; for FCR (feed conversion ratio), effect compared to a standard control / FI (feed intake), effect compared to a standard control: 36-49 days. On the procedure:
This evaluation was carried out by in vivo tests conducted in broilers and in piglets at the post-weaning stage.
The animals were placed in normal breeding conditions.
They were divided into four distinct groups, and each group received for about ten days (from 36 to 49 days of age) a standard feed (STD) containing a source of butyrate. Several sources of butyrate were compared: the butyryl lactylate of the disclosure and two protected forms of butyrate, commercially available, a coated butyrate (fat-coated) and tributyrin.
The growth performances and feed consumption were measured at the beginning and end of the study.

Data set [2] in a line: in vitro upper digestive tract model (simulated chicken crop, proventriculus/gizzard, intestine): release of butyric acid. The class given is in vitro ADME. The following applies: 50 mM butyric acid equivalent; for release of butyric acid in the stomach: proventriculus/gizzard 45 min at pH 3, 40° C. with pepsin. The procedure:
The experimental tests were conducted in in vitro models described below.
The method developed by Menezez and Blackburn was used to simulate the chicken digestive tract [Menezes-Blackburn D, Gabler S, Greiner R. «Performance of Seven Commercial Phytases in an in Vitro Simulation of Poultry Digestive Tract.»J Agric Food Chem. 2015 Jul. 15; 63 (27): 6142-9]. It consists of simulating the 3 compartments of the upper part of the digestive tract: the crop (30 min at pH 5, 40° C. with stirring), the proventriculus/gizzard (45 min at pH 3, 40° C. with stirring with the addition of pepsin), the intestine (60 min at pH 6.5, 40° C. with stirring with the addition of pancreatin and bile extract). The rate of protection and release of butyrate for each molecule (50 mM butyric acid equivalent of the butyryl lactylate of the disclosure or tributyrin of the prior art) was evaluated in each compartment sequentially (quantification of the release of butyric acid and residual butyric ester).

Data set [3] can be described thus: palatability / growth performance test in broilers. It is filed as in vivo. The note with it: broiler chickens, 17-21 days, butyrate source incorporated in standard feed (STD), five days. The procedure:
This evaluation was carried out by in vivo tests conducted in broilers and in piglets at the post-weaning stage. The chickens were placed in normal breeding conditions. They were divided into several groups, and each group received for five days a feed containing a source of butyrate, incorporated directly into a standard feed (STD). […] The growth performances and feed consumption were measured at the beginning and end of the study.

The nature of data set [4]: in vitro lower digestive tract model (caecal fermentation): release of butyric acid. The class given is in vitro ADME, broiler chickens (Ross PM33). The note with it: 50 mM butyric acid equivalent; upper tract model plus caecal fermentation 24 hours at 40° C. The procedure: Twelve twenty-one-day-old broiler chickens (Ross PM33), housed in cages, fed and watered ad libitum, were euthanized and their caecal contents were collected and pooled. All experiments were conducted in accordance with the European Union animal protection guidelines and the legislation governing the ethical treatment of animals, and the researchers were certified by the French government to conduct animal experiments. The facilities of the Centre of Expertise and Research in Nutrition comply with Convention No. C 03 159 4 of 6 Nov. 2008, relating to experiments on living vertebrate animals (European Regulation 24/11/86 86/609 EEC; Ministerial Order of 19 Apr. 1988).
The cecal contents were mixed (5% w/v) with an anaerobic buffer prepared according to Theodorou et al. [Theodorou, Michael K., et al. “A simple gas production method using a pressure transducer to determine the fermentation kinetics of ruminant feeds.” Animal feed science and technology 48.3-4 (1994): 185-197], then the microbial suspension transferred into Hungate tubes containing 50 mM of butyric acid equivalent for each candidate (butyryl lactylate of the disclosure or tributyrin of the prior art) and incubated for 24 hours with constant stirring at 40° C.
At the end of the fermentation, the butyric acid and residual butyric ester were quantified.

A short description of data set [5]: hydrolysis in drinking water. The class given is physicochemical. The note with it: drinking water of livestock.
A short description of another data set: solubility in water. It is filed as physicochemical.
Setting [6] is: listed as STD + tributyrine butyrate.
Setting [7] is: listed as STD + Butyryl lactylate.
Where [8] appears, read: listed as STD + butyryl lactylate.

With `CCCC(=O)OCC(COC(=O)CCC)OC(=O)CCC` [tributyrin, reference compound], in data set [1], the “BWG (body weight gain), effect compared to a standard control” value (“BWG … compared to a standard control” below) was −17%; the “FCR (feed conversion ratio), effect compared to a standard control” value is “+3.3%”; the “FI (feed intake), effect compared to a standard control” value (“FI … compared to a standard control” below) was −14%. In data set [1] (setting [6]), the “BWG … compared to a standard control” value is −17%; the “FCR (feed conversion ratio), effect compared to a standard control” value is “+3.3%”; the “FI … compared to a standard control” value was −14%. The “release of butyric acid in the intestine (upper part)” value in data set [2] (intestine 60 min at pH 6.5, 40° C. with pancreatin and bile extract) is “complete release at the beginning of the small intestine”. Besides, the “release of butyric acid in the stomach” value in data set [2] was “significant gastric loss”. Moreover, in data set [3], the “BWG (body weight gain), effect compared to a standard diet” value (from here on “BWG … compared to a standard diet”) is on record as −9%; the “FCR (feed conversion ratio), effect compared to a standard diet” value was “+6.6%”; the “FI (feed intake), effect compared to a standard diet” value (from here on “FI … compared to a standard diet”) is recorded as −3%. In data set [3] (setting [6]), the “BWG … compared to a standard diet” value was −9% and the “FI … compared to a standard diet” value was −3%.
Turning to `CCCC(=O)OC(C)C(=O)O` (stereo not shown) [butyryl lactylate], in data set [1], the “BWG … compared to a standard control” value is “+21%”; the “FCR (feed conversion ratio), effect compared to a standard control” value is −4%; the “FI … compared to a standard control” value was “+16%”. For the same compound, in data set [1] (setting [7]), the “BWG … compared to a standard control” value was “+21%”; the “FCR (feed conversion ratio), effect compared to a standard control” value is listed as −4.8%; the “FI … compared to a standard control” value is listed as “+16%”. For the same compound, in data set [2], the “release of butyric acid in the stomach” value is recorded as “does not release butyric acid in the stomach”. Also, the “intestinal release profile of butyric acid, upper and lower intestine” value in data set [4] is “balanced release in the upper and lower intestine”. Moreover, in data set [3], the “BWG … compared to a standard diet” value is reported as “+10%”; the “FCR (feed conversion ratio), effect compared to a standard diet” value was −6.7%; the “FI … compared to a standard diet” value is recorded as “+2.8%”. In addition, in data set [3] (setting [8]), the “BWG … compared to a standard diet” value was “+10%” and the “FI … compared to a standard diet” value is “+2.8%”. In addition, the “hydrolysis into lactic acid and free butyric acid in drinking water” value in data set [5] is on record as “without risk of hydrolysis”. In addition, the solubility in water entry in the data set “solubility in water” is listed as “soluble in water”.
